Source: patent US10723711B2, “1,1,1-trifluoro-3-hydroxypropan-2-yl carbamate derivatives and 1,1,1-trifluoro-4-hydroxybutan-2-yl carbamate derivatives as MAGL inhibitors” (PFIZER INC., priority 2015, dated 2020)
Like-named read-outs stand apart in the source and are kept apart here.

Columns and labels:
[1] = target: T1, human recombinant Monoacylglycerol Lipase (Homo sapiens, UniProt Q99685); assay: MAGL inhibition enzymatic assay, fluorogenic substrate 7-HCA, IC50 at T=0 min or after 30 minute incubation (T=30 min); assay type: biochemical; conditions: geometric mean of 2-4 determinations unless otherwise indicated
T1 sequence (Q99685 1-303): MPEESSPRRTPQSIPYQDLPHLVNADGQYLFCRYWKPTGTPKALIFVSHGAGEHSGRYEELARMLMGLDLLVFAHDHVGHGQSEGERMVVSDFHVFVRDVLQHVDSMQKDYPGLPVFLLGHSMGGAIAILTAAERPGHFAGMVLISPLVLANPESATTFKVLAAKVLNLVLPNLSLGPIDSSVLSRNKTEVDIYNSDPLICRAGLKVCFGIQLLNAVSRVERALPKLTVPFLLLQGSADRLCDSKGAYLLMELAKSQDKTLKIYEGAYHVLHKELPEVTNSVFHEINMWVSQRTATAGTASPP
Protocol: An equal volume of 7-HCA in assay buffer with 10% DMSO was added either immediately (T=0 min) or after a 30 minute incubation (T=30 min) to initiate the reaction. […] After these dilutions, the final concentration of the test compound ranged from 3 μM to 0.03 nM. […] IC50 values were generated based on a four parameter fit model using ABASE software from IDBS.

[2] = Prodrug in vivo pharmacokinetics in dogs after intravenous administration (LC-MS-MS of prodrug and parent); conditions: for % AUC Extrap / AUC Extrap / Co / Rate Constant / T½ / AUC / CL / Vdss: Beagle dogs; for clearance / Vd: beagle, dog, in vivo, iv, 0.7 mg/kg; for clearance: CL; for Vd: Vdss
Protocol: (§1) Pharmacokinetic parameters derived from the plasma analytical data were determined using Watson LIMS 7.2.003 (Thermo Fisher Scientific, Waltham, Mass.).

[3] = Prodrug in vivo pharmacokinetics in rats after intravenous administration (LC-MS-MS of prodrug and parent); conditions: for Vd: Vdss
Protocol: as §1

[4] = T = 0 min (substrate added immediately), read-out: MAGL (T = 0 min) IC50
[5] = T = 30 min (30 minute incubation), read-out: MAGL (T = 30 min) IC50
[6] = Example 31 in plasma, IV Example 31 at 0.7 mg/kg, Dog 01
[7] = Example 31 in plasma, IV Example 31 at 0.7 mg/kg, Dog 02
[8] = Example 31 in plasma, IV Example 31 at 0.7 mg/kg, Mean
[9] = Example 31 in plasma, Wistar Hann rats, IV Example 31 at 1.48 mg/kg, Mean
[10] = Example 31 in plasma, Wistar Hann rats, IV Example 31 at 1.48 mg/kg, Rat 01
[11] = Example 31 in plasma, Wistar Hann rats, IV Example 31 at 1.48 mg/kg, Rat 02
[12] = Example 32 in plasma, IV Example 32 at 1 mg/kg, Dog 03
[13] = Example 32 in plasma, IV Example 32 at 1 mg/kg, Dog 04
[14] = Example 32 in plasma, IV Example 32 at 1 mg/kg, Mean
[15] = Example 32 in plasma, rats, IV Example 32 (2 mg/kg active), Mean
[16] = Example 32 in plasma, rats, IV Example 32 (2 mg/kg active), Rat 03
[17] = Example 32 in plasma, rats, IV Example 32 (2 mg/kg active), Rat 04

With `O=C(O[C@H](COP(=O)([O-])[O-])C(F)(F)F)N1CCC2(CC1)C[C@@H](NS(=O)(=O)c1ccccc1)CO2.[Na+].[Na+]` [Example 31, (2R)-3,3,3-Trifluoro-2-[({(3R)-3-[(phenylsulfonyl)amino]-1-oxa-8-azaspiro[4.5]dec-8-yl}carbonyl)oxy]propyl phosphate, disodium salt] as the compound, how does the IC50 [1, 4] read?
Its IC50 is > 3 µM.

What about the IC50 [1, 5] of the same compound?
The IC50 was > 3 µM.

And the “% AUC Extrap” value [2, 6]?
The value was 0.181%.

And the “AUC Extrap” value [2, 6]?
Its value is 108 ng·h/mL.

What about the Co [2, 6] of the same compound?
Its Co is 1630 ng/mL.

And the “Rate Constant” value [2, 6]?
Its value is 11.3 h⁻¹.

What about the T½ [2, 6] of the same compound?
Its T½ is 3.68 min.

What about the AUC ([2]; Example 31 in plasma, IV Example 31 at 0.7 mg/kg, Dog 01, AUC interval 0-0.5 Hours) of the same compound?
Its AUC is 108 ng·h/mL.

What about the “% AUC Extrap” value [2, 7] of the same compound?
The value was 0.103%.

And the “AUC Extrap” value [2, 7]?
The value was 53.9 ng·h/mL.

And the Co [2, 7]?
The Co was 821 ng/mL.

What about the “Rate Constant” value [2, 7] of the same compound?
The value was 11.2 h⁻¹.

And the T½ [2, 7]?
The T½ was 3.72 min.

What about the AUC ([2]; Example 31 in plasma, IV Example 31 at 0.7 mg/kg, Dog 02, AUC interval 0-0.5 Hours) of the same compound?
The AUC was 53.8 ng·h/mL.

And the “% AUC Extrap” value [2, 8]?
Its value is 0.142%.

What about the AUC [2, 8] of the same compound?
The AUC was 80.9 ng·h/mL.

And the “AUC Extrap” value [2, 8]?
Its value is 81.0 ng·h/mL.

And the Co [2, 8]?
Its Co is 1230 ng/mL.

And the “Rate Constant” value [2, 8]?
Its value is 11.3 h⁻¹.

And the T½ [2, 8]?
The T½ was 3.7 min.

What about the clearance [2, 6] of the same compound?
Its clearance is 108 mL/min/kg.

What about the clearance [2, 7] of the same compound?
Its clearance is 216 mL/min/kg.

And the clearance [2, 8]?
Its clearance is 162 mL/min/kg.

And the Vd [2, 6]?
Its Vd is 0.235 L/kg.

And the Vd [2, 7]?
Its Vd is 0.465 L/kg.

And the Vd [2, 8]?
Its Vd is 0.35 L/kg.

What about the “% AUC Extrap” value [3, 9] of the same compound?
The value was 1.41%.

And the AUC [3, 9]?
Its AUC is 43.0 ng·h/mL.

What about the “AUC Extrap” value [3, 9] of the same compound?
The value was 43.6 ng·h/mL.

And the Co [3, 9]?
The Co was 476 ng/mL.

And the “Rate Constant” value [3, 9]?
Its value is 12.1 h⁻¹.

What about the T½ [3, 9] of the same compound?
Its T½ is 3.75 min.

And the “% AUC Extrap” value [3, 10]?
The value was 1.19%.

What about the “AUC Extrap” value [3, 10] of the same compound?
The value was 43.6 ng·h/mL.

And the Co [3, 10]?
Its Co is 399 ng/mL.

What about the “Rate Constant” value [3, 10] of the same compound?
The value was 8.61 h⁻¹.

And the T½ [3, 10]?
The T½ was 4.83 min.

What about the AUC ([3]; Example 31 in plasma, Wistar Hann rats, IV Example 31 at 1.48 mg/kg, Rat 01, AUC interval 0-0.5 Hours) of the same compound?
Its AUC is 43.1 ng·h/mL.

What about the “% AUC Extrap” value [3, 11] of the same compound?
The value was 1.62%.

What about the “AUC Extrap” value [3, 11] of the same compound?
The value was 43.6 ng·h/mL.

And the Co [3, 11]?
Its Co is 553 ng/mL.

What about the “Rate Constant” value [3, 11] of the same compound?
Its value is 15.6 h⁻¹.

What about the T½ [3, 11] of the same compound?
Its T½ is 2.67 min.

What about the AUC ([3]; Example 31 in plasma, Wistar Hann rats, IV Example 31 at 1.48 mg/kg, Rat 02, AUC interval 0-0.25 Hours) of the same compound?
The AUC was 42.9 ng·h/mL.

What about the clearance ([3]; Wistar Hann, rat, in vivo, iv, 1.48 mg/kg) of the same compound?
Its clearance is 566 mL/min/kg.

And the Vd ([3]; Wistar Hann, rat, in vivo, iv, 1.48 mg/kg, Example 31 in plasma, Wistar Hann rats, IV Example 31 at 1.48 mg/kg, Mean)?
The Vd was 2.23 L/kg.

And the Vd ([3]; Wistar Hann, rat, in vivo, iv, 1.48 mg/kg, Example 31 in plasma, Wistar Hann rats, IV Example 31 at 1.48 mg/kg, Rat 01)?
The Vd was 2.86 L/kg.

And the Vd ([3]; Wistar Hann, rat, in vivo, iv, 1.48 mg/kg, Example 31 in plasma, Wistar Hann rats, IV Example 31 at 1.48 mg/kg, Rat 02)?
Its Vd is 1.59 L/kg.

What does the source list for `O=C(O[C@H](COP(=O)([O-])[O-])C(F)(F)F)N1CCC2(CC1)CN(S(=O)(=O)c1ccc(F)cc1)CCO2.[Na+].[Na+]` [Example 32, (2R)-3,3,3-Trifluoro-2-[({4-[(4-fluorophenyl)sulfonyl]-1-oxa-4,9-diazaspiro[5.5]undec-9-yl}carbonyl)oxy]propyl phosphate, disodium salt]?
IC50 [1, 4]: > 3 µM; IC50 [1, 5]: > 3 µM; % AUC Extrap [2, 12]: 0.0443%; AUC Extrap [2, 12]: 146 ng·h/mL; CL [2, 12]: 114 mL/min/kg; Co [2, 12]: 1220 ng/mL; Rate Constant [2, 12]: 5.08 h⁻¹; T½ [2, 12]: 8.16 min; Vdss [2, 12]: 0.751 L/kg; AUC ([2]; Example 32 in plasma, IV Example 32 at 1 mg/kg, Dog 03, AUC interval 0-1 Hours): 146 ng·h/mL; % AUC Extrap [2, 13]: 0.150%; AUC Extrap [2, 13]: 229 ng·h/mL; CL [2, 13]: 72.8 mL/min/kg; Co [2, 13]: 2370 ng/mL; Rate Constant [2, 13]: 5.06 h⁻¹; T½ [2, 13]: 8.22 min; Vdss [2, 13]: 0.357 L/kg; AUC ([2]; Example 32 in plasma, IV Example 32 at 1 mg/kg, Dog 04, AUC interval 0-1 Hours): 229 ng·h/mL; % AUC Extrap [2, 14]: 0.0972%; AUC [2, 14]: 188 ng·h/mL; AUC Extrap [2, 14]: 188 ng·h/mL; CL [2, 14]: 93.4 mL/min/kg; Co [2, 14]: 1800 ng/mL; Rate Constant [2, 14]: 5.07 h⁻¹; T½ [2, 14]: 8.22 min; Vdss [2, 14]: 0.554 L/kg; % AUC Extrap [3, 15]: 0.532%; AUC [3, 15]: 159 ng·h/mL; AUC Extrap [3, 15]: 160 ng·h/mL; CL [3, 15]: 215 mL/min/kg; Co [3, 15]: 3760 ng/mL; Rate Constant [3, 15]: 5.94 h⁻¹; T½ [3, 15]: 7.32 min; Vdss [3, 15]: 0.597 L/kg; % AUC Extrap [3, 16]: 0.232%; AUC Extrap [3, 16]: 185 ng·h/mL; CL [3, 16]: 180 mL/min/kg; Co [3, 16]: 4480 ng/mL; Rate Constant [3, 16]: 4.73 h⁻¹; T½ [3, 16]: 8.82 min; Vdss [3, 16]: 0.515 L/kg; AUC ([3]; Example 32 in plasma, rats, IV Example 32 (2 mg/kg active), Rat 03, AUC interval 0-1 Hours): 185 ng·h/mL; % AUC Extrap [3, 17]: 0.832%; AUC Extrap [3, 17]: 134 ng·h/mL; CL [3, 17]: 249 mL/min/kg; Co [3, 17]: 3040 ng/mL; Rate Constant [3, 17]: 7.14 h⁻¹; T½ [3, 17]: 5.83 min; Vdss [3, 17]: 0.679 L/kg; AUC ([3]; Example 32 in plasma, rats, IV Example 32 (2 mg/kg active), Rat 04, AUC interval 0-0.5 Hours): 133 ng·h/mL
